Measured values as given in US12624068B2, “Exon skipping by peptide nucleic acid derivatives” (OliPass Corporation, priority 2016, dated 2026).
{Fethoc} = N-terminal Fethoc cap; [C(1O2)] = modified PNA monomer acting as cytosine, C(pOq) type, 1O2; [A(5)] = modified PNA monomer acting as adenine, A(p) type, p=5; [A(6)] = modified PNA monomer acting as adenine, A(p) type, p=6; [G(5)] = modified PNA monomer acting as guanine, G(p) type, p=5; [G(6)] = modified PNA monomer acting as guanine, G(p) type, p=6; {NH2} = C-terminal amide

Assays:
[1] = system: HIF-1α protein; assay: HIF-1α western blot in HeLa cells; type: cell-based, human; settings: 24 hours
Experimental: “HIF-ASO 2” was evaluated for its ability to inhibit the expression of HIF-1α protein in HeLa cells as described below.
[Cell Culture & ASO Treatment] HeLa cells grown in 60 mm culture dish containing 5 mL culture medium were treated with “HIF-ASO 2” at 0 zM (negative control), 10 zM, 100 zM, 1 aM, or 10 aM.
[CoCl2 Treatment and Cell Lysis] 24 hours after the ASO treatment, the culture dishes except for the one without ASO treatment were treated with 200 μM CoCl2 for another 3 hours to upregulate the HIF-1α protein level by suppressing the activity of prolylhydroxylases (PHDs). Then the cells were washed 2× with 1 mL cold PBS, and subjected to lysis on ice with 200 μL 1×RIPA buffer (Cat. Number 9806, Cell Signaling Tech) supplemented with 1% SDS and 1× proteinase inhibitor cocktail (cOmplete Mini, Roche). Each lysate was collected in 1.5 mL e-tube, mixed with 100 μL 5× sample buffer, and boiled for 5 min at 100° C. The lysates were subjected to electrophoretic separation on an 8% SDS-PAGE gel, and transferred onto a 0.45 μm PVDF membrane. The membrane was probed with an anti-HIF-1α antibody (Cat. Number 610958, BD Biosciences) and an anti-β-actin antibody (Cat. Number sc4778, Santa Cruz).
FIG. 19B is a western blot data obtained with HeLa cells treated with “HIF-ASO 6” at 0 (negative control), 10, 100 or 1,000 zM for 24 hours. FIG. 19C provides the individual HIF-1α band intensities normalized against each individual β-actin band intensity by densitometry. The expression of HIF-1α protein decreased by ca 45-55% in the cells treated with “HIF-ASO 6”.
“HIF-ASO 1” was evaluated for its ability to inhibit the HIF-1α protein expression in HeLa cells according to the procedures described in “HIF-1α Example 2” unless noted otherwise. In this example, HeLa cells were treated with “HIF-ASO 1” at 0 zM (negative control), 100 zM, 300 zM, 1 aM, 3 aM, 10 aM, 30 aM, 100 aM or 300 aM for 72 hours prior to suppressing the activity of PHDs by an incubation with 200 μM CoCl2 for 3 hours. There were 4 culture dishes of the negative control, i.e., 0 zM “HIF-ASO 1”.
[ASO Treatment] […]

[2] = system: 10-mer complementary DNA; assay: Tm between PNA derivatives and 10-mer complementary DNA (N- or C-terminal); type: binding; settings: uncorrected
Summary of the method: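 4 μM 10-mer PNA with 4 μM complementary 10-mer DNA in pH 7.16 buffer (10 mM sodium phosphate, 100 mM NaCl) was heated at 90 °C for a minute, slowly cooled to ambient, then Tm measured by UV absorbance at 260 nm.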

| Substance | decrease of HIF-1α protein expression (western blot, normalized against β-actin) ([1]; HeLa cells, 10, 100 or 1,000 zM) | decrease of HIF-1α protein expression (western blot, normalized against β-actin) ([1]; HeLa cells, 10 aM, then 200 μM CoCl2 3 hours) [%] | Tm Value, 10-mer DNA against C-Terminal [2] [°C] | Tm Value, 10-mer DNA against N-Terminal [2] [°C] |
| --- | --- | --- | --- | --- |
| Fethoc-A(6)GA-A(6)CT-TA(6)T-CC(1O2)T-A(6)CT-TA(6)-NH2 (AGAACTTATCCTACTTA; splice-switching; all peptide nucleic acid (PNA), [A(6)] at 1, 4, 8, 13, 17, [C(1O2)] at 11, 5' {Fethoc}, 3' {NH2}; peptide nucleic acid backbone) [HIF-ASO 6] | 45-55% |  |  |  |
| Fethoc-GA(5)A-C(1O2)TT-A(5)TC-CTA(5)-C(1O2)T-NH2 (GAACTTATCCTACT; splice-switching; all peptide nucleic acid (PNA), [A(5)] at 2, 7, 12, [C(1O2)] at 4, 13, 5' {Fethoc}, 3' {NH2}; peptide nucleic acid backbone) [HIF-ASO 2] |  | ~75 |  |  |
| Fethoc-AA(5)G-TG(5)T-A(5)CC(1O2)-TA(5)A-A(5)C-NH2 (AAGTGTACCTAAAC; splice-switching; all peptide nucleic acid (PNA), [A(5)] at 2, 7, 11, 13, [G(5)] at 5, [C(1O2)] at 9, 5' {Fethoc}, 3' {NH2}; peptide nucleic acid written N to C) [SCN-ASO 27] |  |  | 69.0 | 77.0 |
| Fethoc-AC(1O2)T-TA(5)C-G(6)CA-A(5)AA(5)-AC(1O2)A-A(5)-NH2 (ACTTACGCAAAAACAA; all peptide nucleic acid (PNA), [C(1O2)] at 2, 14, [A(5)] at 5, 10, 12, 16, [G(6)] at 7, 5' {Fethoc}, 3' {NH2}; peptide nucleic acid written N to C) [SCN-ASO 7] |  |  | 64.6 | 65.0 |
